Results taken from EP1038516A1, “Cosmetic composition comprising kynurenine” (Uchikuga, Saburoh, priority 1999, dated 2000).
“And” between values parts separate entries of the source, which are not always exact repeats. Equal entries are not always repeated.

How the values were obtained:
tyrosinase [1] = assay: Test Example 1: disappearance of kynurenine / 3-hydroxykynurenine and pigment generation with tyrosinase and dopa or tyrosine; format: biochemical; details: 3.5 hours; for disappearance of kynurenine or 3-hydroxykynurenine: assayed at 355 nm
Protocol: 5 units of tyrosinase, 2.5 µmol of dopa or tyrosine, and 1 mg of kynurenine sulfate salt or 3-hydroxykynurenine dihydrate were dissolved in 0.1M phosphate buffer, pH 7.0 to a final volume of 5 ml and the resulting solution was agitated at ambient temperature for 3.5 hours; thereafter, the disappearance of kynurenine or 3-hydroxykynurenine was assayed at 355 nm, which corresponds to the λmax of kynurenine and 3-hydroxykynurenine in UV-A. The contents of the individual tests are shown below in Table 2. Table 2 [table]

[2] = Ultraviolet absorption (maximum absorption wavelength and molecular extinction coefficient); format: physicochemical; details: for Maximum absorption wavelength (λmax): UV-A region (320 to 380 nm); for Molecular extinction coefficient (ε): at λmax in the UV-A region
Description: The properties of kynurenine and the derivative thereof are collectively shown below in Table 1, along with the properties of "Palsole A". As apparently shown in the table and Fig. 1, the maximum absorption lengths (λmax) of kynurenine and the derivative thereof preferably reside in 360 to 365 nm in the UV-A region (320 to 380 nm) with the highest risk of direct darkening of skin. Kynurenine has a molecular extinction coefficient (ε) functioning as a marker of the intensity of ultraviolet absorption (ε = 4,000), which is about 1/10 of the commercially available Palsole A (ε = 36,000). […] Accordingly, such large quantity considered abnormal is required to be blended. Table 1 In addition to the UV-A region, kynurenine and the derivative thereof have the maximum absorption wavelength at 253 nm with the molecular extinction coefficient of 6,700. In other words, kynurenine and the derivative thereof exert absorption in the UV-C region ([…]). The ultraviolet ray in the UV-C region is generally absorbed in the ozone layer and therefore never reaches ground surface, so the absorption in the region is not meaningful as cosmetics. Kynurenine and the derivative thereof never exert absorption in the UV-B region (290 to 320 nm) in the erythema curve region with the highest risk in sunlight. Thus, an effect on the prevention of erythema against ultraviolet ray in the UV-B region cannot be expected.

tyrosinase [3] = assay: Tyrosinase activity-inhibiting effect; format: biochemical
Description: It was expectantly assumed that kynurenine and the derivative thereof inhibited tyrosinase and thereby suppressed the generation of black melanin so that kynurenine and the derivative thereof could be utilized as an ingredient for preventing spot and freckle and the deposition of pigments.

5 bacterial strains = assay: Ames test (mutagenicity); format: cell-based
Description: The kynurenine represented by the general formula I and substances relating thereto are metabolic intermediates of tryptophan and are essentially present in biological organisms; and the kynurenine and substances relating thereto are contained at particularly large quantities in the eyes of human new born babies and infants but are decreased over aging [J. Biochem., Vol. 89, 103 (1981)], and have therefore no safety problem.
The generated brown pigment is present in the eye, skin and wing of Arthropoda and Mollusca. The brown pigment is also contained in human eye. Because the brown pigment is widely distributed in animals in such manner, the generated pigment is greatly safe. The brown pigment (xanthommatin) was chemically synthesized according to the method in Angew. Chem., 69, Jahrg. 16 (1957) and subjected to Ames test.

[4] = Tests 1 and 2: tyrosinase +, dopa/tyrosine +, air +, pH 7.0, ambient temperature

pigment generation (tyrosinase [1]; [4])	disappearance of kynurenine or 3-hydroxykynurenine (tyrosinase [1]; [4])	Maximum absorption wavelength (λmax) [2]	Molecular extinction coefficient (ε) [2]	disappearance of kynurenine or 3-hydroxykynurenine (tyrosinase [1]; Test 5: tyrosinase +, dopa/tyrosine +, no air)	molecular extinction coefficient (ε) relative to Palsole A ([2]; UV-A region)	SMILES	disappearance of kynurenine or 3-hydroxykynurenine (tyrosinase [1]; Test 3: tyrosinase with thermal treatment, dopa/tyrosine +, air +)	disappearance of kynurenine or 3-hydroxykynurenine (tyrosinase [1]; Test 4: tyrosinase +, no dopa/tyrosine, air +)	tyrosinase-inhibiting ability (tyrosinase [3])	mutagenicity (5 bacterial strains)
pigment generated	disappeared	355 nm	–	–	–	Nc1c(O)cccc1C(=O)CC(N)C(=O)O (stereo not drawn) [3-hydroxykynurenine]	no disappearance of 3-hydroxykynurenine observed.	no disappearance of 3-hydroxykynurenine observed.	–	–
–	–	355 nm	36,000 and 35,000	–	–	COc1ccc(C(=O)CC(=O)c2ccc(C(C)(C)C)cc2)cc1 [Palsole A, reference compound]	–	–	–	–
pigment generated	disappeared	355 nm	4,000	no disappearance of kynurenine observed.	about 1/10	Nc1ccccc1C(=O)CC(N)C(=O)O (stereo not drawn) [kynurenine]	–	–	never has any ability of tyrosinase inhibition or has the ability insufficiently	–
–	–	–	–	–	–	NC(CC(=O)c1cccc2oc3cc(=O)c4[nH]c(C(=O)O)cc(=O)c4c-3nc12)C(=O)O (stereo not drawn) [xanthommatin]	–	–	–	No mutagenicity was observed
